Test results published in ChEMBL document CHEMBL4033770, “Importance of a 4-Alkyl Substituent for Activity in the Englerin Series” (2017).

Columns and labels:
Assay type in all cases: functional
A498 = assay: Growth inhibition of human A498 cells incubated for 48 hrs by SRB assay; conditions: A498, 48 h
ACHN = assay: Growth inhibition of human ACHN cells incubated for 48 hrs by SRB assay
UO-31 = assay: Growth inhibition of human UO31 cells incubated for 48 hrs by SRB assay; conditions: UO-31, 48 h
Hs-578T = assay: Growth inhibition of human Hs 578T cells incubated for 48 hrs by SRB assay

SMILES: CC(C)[C@]12C[C@@H](OC(=O)CO)[C@](C)(O1)[C@@H]1CCC[C@H]1[C@@H]2OC(=O)/C=C/c1ccccc1
- GI50 (A498): 123 nM
- GI50 (ACHN): 162 nM
- GI50 (UO-31): 182 nM
- GI50 (Hs-578T): 31 nM

SMILES: CC[C@@H]1CC[C@@H]2[C@@H]1[C@H](OC(=O)/C=C/c1ccccc1)[C@@]1(C(C)C)C[C@@H](OC(=O)CO)[C@]2(C)O1
- GI50 (A498): 38 nM
- GI50 (ACHN): 13 nM
- GI50 (UO-31): 19 nM
- GI50 (Hs-578T): 4.1 nM

SMILES: CC(C)[C@@H]1CC[C@@H]2[C@@H]1[C@H](OC(=O)/C=C/c1ccccc1)[C@@]1(C(C)C)C[C@@H](OC(=O)CO)[C@]2(C)O1
- GI50 (A498): 8.1 nM
- GI50 (ACHN): 8.3 nM
- GI50 (UO-31): 11 nM
- GI50 (Hs-578T): 3.2 nM
